For the assay, the target named is VHL (Homo sapiens (Human), UniProt P40337). The experiment in a line: VHL fluorescence polarization (FP) competition assay. The class given is binding.

Turning to `COc1cccc(CCC(=O)N[C@H](C(=O)N2C[C@H](O)C[C@H]2C(=O)NCc2ccc(-c3scnc3C)cc2)C(C)(C)C)c1` [Example 77, (2S,4R)-4-hydroxy-1-((S)-2-(3-(3-methoxyphenyl)propanamido)-3,3-dimethylbutanoyl)-N-(4-(4-methylthiazol-5-yl)benzyl)pyrrolidine-2-carboxamide], the IC50 is, setting by setting: (1% in DMSO) 0.55 µM; (10% in DMSO) 0.349 µM.

Turning to `CC(C)[C@@H](C(=O)N1C[C@H](O)C[C@H]1C(=O)NCc1ccc(-c2cnn[nH]2)cc1)N1Cc2ccccc2C1=O` [Example 100, (2S,4R)—N-(4-(1H-1,2,3-triazol-5-yl)benzyl)-4-hydroxy-1-((S)-3-methyl-2-(1-oxoisoindolin-2-yl)butanoyl)pyrrolidine-2-carboxamide], where the note is “1% in DMSO”, the IC50 came to 9.77 µM.

For the compound `Cc1ncsc1-c1ccc(CNC(=O)[C@@H]2C[C@@H](O)CN2C(=O)[C@H](c2cccs2)N2Cc3ccccc3C2=O)cc1` [Example 58, (2S,4R)-4-hydroxy-N-(4-(4-methylthiazol-5-yl)benzyl)-1-((R)-2-(1-oxoisoindolin-2-yl)-2-(thiophen-2-yl)acetyl)pyrrolidine-2-carboxamide], the IC50 (1% in DMSO) turned out to be 32.6 µM and the IC50 (10% in DMSO) worked out at 26.2 µM.

Consider `Cc1ncsc1-c1ccc(CNC(=O)[C@@H]2C[C@@H](O)CN2C(=O)[C@@H](NC(=O)CN)C(C)(C)C)cc1` [Example 125, (2S,4R)-1-((S)-2-(2-aminoacetamido)-3,3-dimethylbutanoyl)-4-hydroxy-N-(4-(4-methylthiazol-5-yl)benzyl)pyrrolidine-2-carboxamide], for which, where the note is “1% in DMSO”, the IC50 stood at 1.64 µM.

On to `COCCCc1ccc2c(c1)CN([C@H](C(=O)N1C[C@H](O)C[C@H]1C(=O)NCc1ccc(-c3scnc3C)cc1)C(C)C)C2=O` [Example 57, (2S,4R)-4-hydroxy-1-((S)-2-(5-(3-methoxypropyl)-1-oxoisoindolin-2-yl)-3-methylbutanoyl)-N-(4-(4-methylthiazol-5-yl)benzyl)pyrrolidine-2-carboxamide], for which the IC50 runs as follows: (1% in DMSO) 0.717 µM; (10% in DMSO) 1.41 µM.

`Cc1ncsc1-c1ccc(CNC(=O)[C@@H]2C[C@@H](O)CN2C(=O)[C@H](CS)N2Cc3ccccc3C2=O)cc1` [Example 48, (2S,4R)-4-hydroxy-1-((R)-3-mercapto-2-(1-oxoisoindolin-2-yl)propanoyl)-N-(4-(4-methylthiazol-5-yl)benzyl)pyrrolidine-2-carboxamide]: the IC50 reads like this: (1% in DMSO) 3.77 µM; (10% in DMSO) 4.7 µM.

Regarding `Cc1ncsc1-c1ccc(CNC(=O)[C@@H]2C[C@@H](O)CN2C(=O)C(C)(C)N2Cc3ccccc3C2=O)cc1` [Example 46, (2S,4R)-4-hydroxy-1-(2-methyl-2-(1-oxoisoindolin-2-yl)propanoyl)-N-(4-(4-methylthiazol-5-yl)benzyl)pyrrolidine-2-carboxamide], the IC50 by setting is: (1% in DMSO) 19400 µM; (10% in DMSO) 5100 µM.

As for `Cc1ncsc1-c1ccc([C@H](C)NC(=O)[C@@H]2C[C@@H](O)CN2C(=O)[C@H](C(C)C)N2Cc3ccccc3C2=O)cc1` [Example 39, (2S,4R)-4-hydroxy-N-[(1S)-1-[4-(4-methyl-1,3-thiazol-5-yl)phenyl]ethyl]-1-[(2S)-3-methyl-2-(1-oxo-2,3-dihydro-1H-isoindol-2-yl)butanoyl]pyrrolidine-2-carboxamide], the IC50 came to 0.958 µM (0.25% in DMSO), 0.699 µM (1% in DMSO) and 1.63 µM (10% in DMSO).

As for `Cc1ncsc1-c1ccc(CNC(=O)[C@@H]2C[C@@H](O)CN2C(=O)[C@@H](NC(=O)c2ccccn2)C(C)(C)C)cc1` [Example 78, N—((S)-1-((2S,4R)-4-hydroxy-2-(4-(4-methylthiazol-5-yl)benzylcarbamoyl)pyrrolidin-1-yl)-3,3-dimethyl-1-oxobutan-2-yl)picolinamide], the IC50 (1% in DMSO) was 1.03 µM and the IC50 (10% in DMSO) amounted to 0.81 µM.

Consider `CC(=O)N[C@H](C(=O)N1C[C@H](O)C[C@H]1C(=O)NCc1ccc(-c2scnc2C)cc1)C(C)C` [Example 69, (2S,4R)-1-((S)-2-acetamido-3-methylbutanoyl)-4-hydroxy-N-(4-(4-methylthiazol-5-yl)benzyl)pyrrolidine-2-carboxamide], for which the IC50 was found to be 1.43 µM (1% in DMSO) and 4.28 µM (10% in DMSO).

The compound `Cc1ncsc1-c1ccc(CNC(=O)[C@@H]2C[C@@H](O)CN2C(=O)[C@H](C(C)C)N2Cc3cccc(Cl)c3C2=O)cc1` [Example 7, (2S,4R)-1-((S)-2-(7-cloro-1-oxoisoindolin-2-yl)-3-methylbutanoyl)-4-hydroxy-N-(4-(4-methylthiazol-5-yl)benzyl)pyrrolidine-2-carboxamide] returned an IC50 (1% in DMSO) of 7.51 µM and an IC50 (10% in DMSO) of 8.52 µM.

Consider `Cc1ncsc1-c1ccc(CNC(=O)[C@@H]2C[C@@H](O)CN2C(=O)[C@H](C(C)C)N2Cc3ccccc3C2=O)cc1F` [Example 93, (2S,4R)—N-(3-fluoro-4-(4-methylthiazol-5-yl)benzyl)-4-hydroxy-1-((S)-3-methyl-2-(1-oxoisoindolin-2-yl)butanoyl)pyrrolidine-2-carboxamide], for which the IC50 (1% in DMSO) turned out to be 1.2 µM.

On to `Cc1ncsc1-c1ccc(CNC(=O)[C@@H]2C[C@@H](O)CN2C(=O)[C@H](C(C)C)N2Cc3cc(Cl)ccc3C2=O)cc1` [Example 73, (2S,4R)-1-((S)-2-(5-chloro-1-oxoisoindolin-2-yl)-3-methylbutanoyl)-4-hydroxy-N-(4-(4-methylthiazol-5-yl)benzyl)pyrrolidine-2-carboxamide], for which the IC50 by setting is: (1% in DMSO) 1.33 µM; (10% in DMSO) 1.19 µM.

Consider `Cc1ncsc1-c1ccc(CNC(=O)[C@@H]2C[C@@H](O)CN2C(=O)[C@H](C(C)C)N2Cc3c(F)cccc3C2=O)cc1` [Example 33, (2S,4R)-1-((S)-2-(4-fluoro-1-oxoisoindolin-2-yl)-3-methylbutanoyl)-4-hydroxy-N-(4-(4-methylthiazol-5-yl)benzyl)pyrrolidine-2-carboxamide], for which the IC50 was 1.94 µM (0.25% in DMSO), 0.539 µM (1% in DMSO) and 1.08 µM (10% in DMSO).

Consider `CC(C)[C@@H](C(=O)N1C[C@H](O)C[C@H]1C(=O)N[C@@H](C)c1ccc(Br)cc1)N1Cc2ccccc2C1=O` [Example 24, (2S,4R)—N—((S)-1-(4-bromophenyl)ethyl)-4-hydroxy-1-((S)-3-methyl-2-(1-oxoisoindolin-2-yl)butanoyl)pyrrolidine-2-carboxamide], for which the IC50 by setting is: (0.25% in DMSO) 1.39 µM; (1% in DMSO) 8.65 µM; (10% in DMSO) 28 µM.

Take `Cc1ncsc1-c1ccc(CNC(=O)[C@@H]2C[C@@H](O)CN2C(=O)[C@H](C(C)C)N2Cc3cc(Br)ccc3C2=O)cc1` [Example 25, (2S,4R)-1-((S)-2-(5-bromo-1-oxoisoindolin-2-yl)-3-methylbutanoyl)-4-hydroxy-N-(4-(4-methylthiazol-5-yl)benzyl)pyrrolidine-2-carboxamide]: the IC50 is 2.38 µM (0.25% in DMSO), 1.33 µM (1% in DMSO) and 1.67 µM (10% in DMSO).

With `Cc1ncsc1-c1ccc(CNC(=O)[C@@H]2C[C@@H](O)CN2C(=O)[C@H](C(C)C)N2Cc3ccccc3C2=O)cc1` [Example 6, (2S,4R)-4-hydroxy-1-((S)-3-methyl-2-(1-oxoisoindolin-2-yl)butanoyl)-N-(4-(4-methylthiazol-5-yl)benzyl)pyrrolidine-2-carboxamide], the IC50 turned out to be 6.37 µM (0.25% in DMSO), 0.697 µM (1% in DMSO) and 1.48 µM (10% in DMSO).

Consider `COc1ccccc1CCC(=O)N[C@H](C(=O)N1C[C@H](O)C[C@H]1C(=O)NCc1ccc(-c2scnc2C)cc1)C(C)(C)C` [Example 83, (2S,4R)-4-hydroxy-1-((S)-2-(3-(2-methoxyphenyl)propanamido)-3,3-dimethylbutanoyl)-N-(4-(4-methylthiazol-5-yl)benzyl)pyrrolidine-2-carboxamide], for which the IC50 is 0.626 µM (1% in DMSO) and 0.32 µM (10% in DMSO).

As for `CC(C)[C@@H](C(=O)N1C[C@H](O)C[C@H]1C(=O)NCc1ccc(-c2cncs2)cc1)N1Cc2ccccc2C1=O` [Example 97, (2S,4R)-4-hydroxy-1-((S)-3-methyl-2-(1-oxoisoindolin-2-yl)butanoyl)-N-(4-(thiazol-5-yl)benzyl)pyrrolidine-2-carboxamide], the IC50 (1% in DMSO) stood at 1.45 µM.

For the compound `Cc1ncsc1-c1ccc(CNC(=O)[C@@H]2C[C@@H](S)CN2C(=O)[C@H](C(C)C)N2Cc3ccccc3C2=O)cc1` [Example 119, (2S,4R)-4-mercapto-1-((S)-3-methyl-2-(1-oxoisoindolin-2-yl)butanoyl)-N-(4-(4-methylthiazol-5-yl)benzyl)pyrrolidine-2-carboxamide], the “VHL FP Assay IC50” value (1% in DMSO) is “Not Active”.

For `Cc1c(-c2ccc(CNC(=O)[C@@H]3C[C@@H](O)CN3C(=O)[C@H](C(C)C)N3Cc4ccccc4C3=O)cc2)ncn1C` [Example 106, (2S,4R)—N-(4-(1,5-dimethyl-1H-imidazol-4-yl)benzyl)-4-hydroxy-1-((S)-3-methyl-2-(1-oxoisoindolin-2-yl)butanoyl)pyrrolidine-2-carboxamide], the IC50 (1% in DMSO) was 14.2 µM. In other words, the double-digit micromolar range.

On to `Cc1ncsc1-c1ccc(CNC(=O)[C@@H]2C[C@@H](O)CN2C(=O)C(N)C(F)(F)F)cc1` (stereo partly drawn) [Example 89, (2S,4R)-1-(2-amino-3,3,3-trifluoropropanoyl)-4-hydroxy-N-(4-(4-methylthiazol-5-yl)benzyl)pyrrolidine-2-carboxamide], for which the IC50 is, setting by setting: (1% in DMSO) 60.6 µM; (10% in DMSO) 139 µM.

In the case of `Cc1ncsc1-c1ccc(CNC(=O)[C@@H]2C[C@@H](O)CN2C(=O)[C@@H](NC(=O)CCC(C)C)c2cccs2)cc1` [Example 52, (2S,4R)-4-hydroxy-1-((R)-2-(4-methylpentanamido)-2-(thiophen-2-yl)acetyl)-N-(4-(4-methylthiazol-5-yl)benzyl)pyrrolidine-2-carboxamide], the IC50 is, setting by setting: (1% in DMSO) 2.48 µM; (10% in DMSO) 3.73 µM.

`COc1ccc(CCC(=O)N[C@H](C(=O)N2C[C@H](O)C[C@H]2C(=O)NCc2ccc(-c3scnc3C)cc2)C(C)(C)C)cc1` [Example 76, (2S,4R)-4-hydroxy-1-((S)-2-(3-(4-methoxyphenyl)propanamido)-3,3-dimethylbutanoyl)-N-(4-(4-methylthiazol-5-yl)benzyl)pyrrolidine-2-carboxamide] gave an IC50 (1% in DMSO) of 0.169 µM. In other words, the sub-micromolar range.

The values above are taken from patent publication US10730870B2, “Compounds and methods for the enhanced degradation of targeted proteins” (Arvinas, Inc., priority 2015, dated 2020).
